According to ChEMBL document CHEMBL1201862, “PubChem BioAssay data set” (2004):
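All cell lines were grown in 96-well plates and treated with compound for 48 hours. At the GI50, growth is halved.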 Activity calls are given as the source filed them. Rule as the data show it: active = GI50 up to about 1.1 µM and inactive = higher.

Key:
Assay in all cases: growth of human tumour cells (NCI), 48 h
[1] = tested on: UO-31
[2] = tested on: DU-145
[3] = tested on: SF-268
[4] = tested on: MOLT-4
[5] = tested on: SK-MEL-2
[6] = tested on: SNB-19
[7] = tested on: SF-295
[8] = tested on: NCI-H522
[9] = tested on: EKVX
[10] = tested on: BT-549
[11] = tested on: UACC-62
[12] = tested on: OVCAR-4
[13] = tested on: SK-MEL-28
[14] = tested on: SNB-75
[15] = tested on: MDA-MB-435
[16] = tested on: NCI/ADR-RES
[17] = tested on: NCI-H226
[18] = tested on: Hs-578T
[19] = tested on: SN12C
[20] = tested on: NCI-H23
[21] = tested on: SF-539
[22] = tested on: PC-3
[23] = tested on: CAKI-1
[24] = tested on: NCI-H460
[25] = tested on: A549
[26] = tested on: ACHN
[27] = tested on: MCF7
[28] = tested on: SK-MEL-5
[29] = tested on: HOP-92
[30] = tested on: U-251
[31] = tested on: HCC 2998
[32] = tested on: UACC-257
[33] = tested on: TK-10
[34] = tested on: LOX IMVI
[35] = tested on: RXF 393
[36] = tested on: HCT-116
[37] = tested on: IGROV-1
[38] = tested on: MDA-N
[39] = tested on: COLO 205
[40] = tested on: OVCAR-8
[41] = tested on: HT-29
[42] = tested on: SK-OV-3
[43] = tested on: SW-620
[44] = tested on: HCT-15
[45] = tested on: CCRF-CEM
[46] = tested on: KM12
[47] = tested on: HL-60
[48] = tested on: 786-0
[49] = tested on: MDA-MB-231
[50] = tested on: OVCAR-3
[51] = tested on: RPMI-8226
[52] = tested on: M14
[53] = tested on: K562
[54] = tested on: A498
[55] = tested on: OVCAR-5
[56] = tested on: SR
[57] = tested on: Malme-3M
[58] = tested on: T47D
[59] = tested on: HOP-62

Cc1nc(C(N)=S)sc1C(/C=C/c1ccc(Cl)c(Cl)c1)=N/NC(C)(C)C
GI50 [1]: 33.2 µM (inactive)
GI50 [2]: > 100 µM (inactive)
GI50 [3]: > 100 µM (inactive)
GI50 [4]: 22.3 µM (inactive)
GI50 [5]: > 100 µM (inactive)
GI50 [6]: > 100 µM (inactive)
GI50 [7]: > 100 µM (inactive)
GI50 [8]: 75.3 µM (inactive)
GI50 [9]: > 100 µM (inactive)
GI50 [10]: > 100 µM (inactive)
GI50 [11]: > 100 µM (inactive)
GI50 [12]: 88.5 µM (inactive)
GI50 [13]: > 100 µM (inactive)
GI50 [14]: > 100 µM (inactive)
GI50 [15]: > 100 µM (inactive)
GI50 [16]: > 100 µM (inactive)
GI50 [17]: 56.5 µM (inactive)
GI50 [18]: > 100 µM (inactive)
GI50 [19]: > 100 µM (inactive)
GI50 [20]: > 100 µM (inactive)
GI50 [21]: > 100 µM (inactive)
GI50 [22]: > 100 µM (inactive)
GI50 [23]: > 100 µM (inactive)
GI50 [24]: > 100 µM (inactive)
GI50 [25]: > 100 µM (inactive)
GI50 [26]: > 100 µM (inactive)
GI50 [27]: > 100 µM (inactive)
GI50 [28]: > 100 µM (inactive)
GI50 [29]: > 100 µM (inactive)
GI50 [30]: > 100 µM (inactive)
GI50 [31]: > 100 µM (inactive)
GI50 [32]: > 100 µM (inactive)
GI50 [33]: > 100 µM (inactive)
GI50 [34]: > 100 µM (inactive)
GI50 [35]: > 100 µM (inactive)
GI50 [36]: > 100 µM (inactive)
GI50 [37]: > 100 µM (inactive)
GI50 [38]: > 100 µM (inactive)
GI50 [39]: > 100 µM (inactive)
GI50 [40]: > 100 µM (inactive)
GI50 [41]: > 100 µM (inactive)
GI50 [42]: > 100 µM (inactive)
GI50 [43]: > 100 µM (inactive)
GI50 [44]: > 100 µM
GI50 [45]: 32.8 µM (inactive)
GI50 [46]: > 100 µM (inactive)
GI50 [47]: 61.8 µM (inactive)
GI50 [48]: > 100 µM (inactive)
GI50 [49]: > 100 µM (inactive)

O=C(O)C(C(C(=O)O)P(=O)(O)O)P(=O)(O)O (centres undefined)
GI50 [1]: > 100 µM (inactive)
GI50 [2]: > 100 µM (inactive)
GI50 [3]: > 100 µM (inactive)
GI50 [50]: > 100 µM (inactive)
GI50 [4]: > 100 µM (inactive)
GI50 [5]: > 100 µM (inactive)
GI50 [6]: > 100 µM (inactive)
GI50 [9]: > 100 µM (inactive)
GI50 [10]: > 100 µM (inactive)
GI50 [11]: > 100 µM (inactive)
GI50 [12]: > 100 µM (inactive)
GI50 [13]: > 100 µM (inactive)
GI50 [14]: > 100 µM (inactive)
GI50 [15]: > 100 µM (inactive)
GI50 [17]: > 100 µM (inactive)
GI50 [18]: > 100 µM (inactive)
GI50 [21]: > 100 µM (inactive)
GI50 [22]: > 100 µM (inactive)
GI50 [51]: > 100 µM (inactive)
GI50 [25]: > 100 µM (inactive)
GI50 [26]: > 100 µM (inactive)
GI50 [27]: > 100 µM (inactive)
GI50 [28]: > 100 µM (inactive)
GI50 [29]: 86.1 µM (inactive)
GI50 [30]: > 100 µM (inactive)
GI50 [31]: > 100 µM (inactive)
GI50 [33]: > 100 µM (inactive)
GI50 [52]: > 100 µM (inactive)
GI50 [34]: > 100 µM (inactive)
GI50 [36]: > 100 µM (inactive)
GI50 [37]: > 100 µM (inactive)
GI50 [38]: > 100 µM (inactive)
GI50 [39]: > 100 µM (inactive)
GI50 [40]: > 100 µM (inactive)
GI50 [41]: > 100 µM (inactive)
GI50 [42]: > 100 µM (inactive)
GI50 [43]: > 100 µM (inactive)
GI50 [53]: > 100 µM (inactive)
GI50 [54]: > 100 µM (inactive)
GI50 [55]: > 100 µM (inactive)
GI50 [44]: > 100 µM
GI50 [56]: > 100 µM (inactive)
GI50 [45]: > 100 µM (inactive)
GI50 [46]: > 100 µM (inactive)
GI50 [47]: > 100 µM (inactive)
GI50 [48]: > 100 µM (inactive)
GI50 [57]: > 100 µM (inactive)

N#Cc1ccc(/C=C2\Cc3ccccc3C2=O)cc1
GI50 [1]: 43.4 µM (inactive)
GI50 [2]: > 100 µM (inactive)
GI50 [3]: > 100 µM (inactive)
GI50 [50]: > 100 µM (inactive)
GI50 [4]: > 100 µM (inactive)
GI50 [6]: > 100 µM (inactive)
GI50 [7]: > 100 µM (inactive)
GI50 [8]: 14.3 µM (inactive)
GI50 [9]: 46.8 µM (inactive)
GI50 [10]: > 100 µM (inactive)
GI50 [11]: > 100 µM (inactive)
GI50 [12]: > 100 µM (inactive)
GI50 [13]: > 100 µM (inactive)
GI50 [14]: > 100 µM (inactive)
GI50 [15]: > 100 µM (inactive)
GI50 [17]: 56.9 µM (inactive)
GI50 [18]: 51.2 µM (inactive)
GI50 [19]: > 100 µM (inactive)
GI50 [20]: > 100 µM (inactive)
GI50 [21]: > 100 µM (inactive)
GI50 [22]: > 100 µM (inactive)
GI50 [23]: 26.2 µM (inactive)
GI50 [58]: 36.3 µM (inactive)
GI50 [24]: > 100 µM (inactive)
GI50 [51]: > 100 µM (inactive)
GI50 [25]: > 100 µM (inactive)
GI50 [26]: > 100 µM (inactive)
GI50 [27]: > 100 µM (inactive)
GI50 [28]: > 100 µM (inactive)
GI50 [59]: > 100 µM (inactive)
GI50 [31]: > 100 µM (inactive)
GI50 [32]: 75.2 µM (inactive)
GI50 [33]: > 100 µM (inactive)
GI50 [52]: > 100 µM (inactive)
GI50 [35]: > 100 µM (inactive)
GI50 [36]: > 100 µM (inactive)
GI50 [38]: > 100 µM (inactive)
GI50 [39]: > 100 µM (inactive)
GI50 [40]: > 100 µM (inactive)
GI50 [41]: > 100 µM (inactive)
GI50 [42]: > 100 µM (inactive)
GI50 [43]: > 100 µM (inactive)
GI50 [53]: > 100 µM (inactive)
GI50 [44]: > 100 µM
GI50 [56]: > 100 µM (inactive)
GI50 [45]: > 100 µM (inactive)
GI50 [46]: > 100 µM (inactive)
GI50 [47]: 67.6 µM (inactive)
GI50 [48]: > 100 µM (inactive)
GI50 [49]: > 100 µM (inactive)

O=[N+]([O-])c1ccc2c(c1)C(N1CCN(CCO)CC1)Cc1ccc(F)cc1S2 (centres undefined)
GI50 [1]: 4.39 µM (inactive)
GI50 [2]: 14.8 µM (inactive)
GI50 [3]: 13.5 µM (inactive)
GI50 [50]: 16.4 µM (inactive)
GI50 [4]: 1.04 µM (active)
GI50 [6]: 10.7 µM (inactive)
GI50 [7]: 4.14 µM (inactive)
GI50 [8]: 3.48 µM (inactive)
GI50 [9]: 11.2 µM (inactive)
GI50 [10]: 10.8 µM (inactive)
GI50 [11]: 2.49 µM (inactive)
GI50 [12]: 12.4 µM (inactive)
GI50 [13]: 1.96 µM (inactive)
GI50 [14]: 2.05 µM (inactive)
GI50 [16]: 10.3 µM (inactive)
GI50 [17]: 9.1 µM (inactive)
GI50 [18]: 6.75 µM (inactive)
GI50 [19]: 11.5 µM (inactive)
GI50 [20]: 13.5 µM (inactive)
GI50 [21]: 6.22 µM (inactive)
GI50 [22]: 2.65 µM (inactive)
GI50 [23]: 13.1 µM (inactive)
GI50 [58]: 17.4 µM (inactive)
GI50 [24]: 8.61 µM (inactive)
GI50 [25]: 12.1 µM (inactive)
GI50 [26]: 4.44 µM (inactive)
GI50 [27]: 10.1 µM (inactive)
GI50 [28]: 1.8 µM (inactive)
GI50 [59]: 17.1 µM (inactive)
GI50 [30]: 10.1 µM (inactive)
GI50 [31]: 2.58 µM (inactive)
GI50 [32]: 2.57 µM (inactive)
GI50 [33]: 13.7 µM (inactive)
GI50 [52]: 3.15 µM (inactive)
GI50 [35]: < 0.01 µM (active)
GI50 [36]: 5 µM (inactive)
GI50 [37]: 3.85 µM (inactive)
GI50 [38]: 11 µM (inactive)
GI50 [39]: 5.48 µM (inactive)
GI50 [40]: 11.3 µM (inactive)
GI50 [41]: 2.49 µM (inactive)
GI50 [42]: 17.3 µM (inactive)
GI50 [43]: 4.95 µM (inactive)
GI50 [53]: 2.29 µM (inactive)
GI50 [54]: 11.6 µM (inactive)
GI50 [55]: 13.4 µM (inactive)
GI50 [44]: 5.93 µM
GI50 [56]: 4.04 µM (inactive)
GI50 [45]: 3.18 µM (inactive)
GI50 [46]: 6.64 µM (inactive)
GI50 [47]: 5.02 µM (inactive)
GI50 [48]: 12 µM (inactive)
GI50 [49]: 12.9 µM (inactive)
